Among the data in US20250136629A1, “SELF-ASSEMBLED NANOPARTICLES FOR PHOTOTHERMAL THERAPY” (The University of Hong Kong, priority 2023, published 2025) are air stability values, retold here.

This data set is described as follows: Air stability of the complexes (observation). Type of data set: physicochemical.

Consider [Fe(II)-ppy-tpy-Cl] [Complex R], for which the air stability result is “slightly air-sensitive in both the solid and solution states”.
